{
  "source": "patent US9475839B2",
  "about": "“Peptide-based inhibitor of interleukin-10 or interferon-gamma signaling” (THE UNITED STATES OF AMERICA, AS REPRESENTED BY THE …, priority 2010, dated 2016)",
  "note": "Non-standard residues stand in square brackets, D forms with d. Residues, ends and D or L forms follow the SMILES beside them. *: point of attachment. Palmitoyl = CCCCCCCCCCCCCCCC(=O)*",
  "data": [
    {"test_system": "MDA-MB-231 breast cancer cells", "assay": "Inhibition of IFN-gamma-dependent growth of MDA-MB-231 cells, MTT assay, 48 hours", "format": "cell-based", "conditions": "48 h", "units": {"GI50": "nM"}, "procedure": "Cells were exposed to compounds for 48 hours and cell number was determined with the help of MTT assay.\nCells were exposed to IL10-HF-1 for 48 hours and cell number was determined with the help of MTT assay.\nPeptides designed to mimic conserved regions of the receptor sequences were tested for the ability to inhibit IL10 and IFN-gamma signaling. Inhibition of IL10 signaling was tested in a mouse mast cell line MC/9. […] Abrogation of IFN-gamma signaling or STAT1 activation causes cell death in this cell line.", "values": [
      {"smiles": "CCCCCCCCCCCCCCCC(=O)N[C@@H](Cc1ccccc1)C(=O)N[C@@H](Cc1ccc(O)cc1)C(=O)N[C@H](C(=O)N[C@@H](CCCCN)C(=O)N[C@@H](CCCCN)C(=O)N[C@H](C(=O)N[C@@H](CC(N)=O)C(=O)N1CCC[C@H]1C(=O)N[C@@H](CC(C)C)C(=O)N[C@@H](CCCCN)C(=O)N[C@@H](CCC(=O)O)C(=O)N[C@@H](CCCCN)C(=O)N[C@@H](CO)C(=O)N[C@H](C(=O)N[C@H](C(=O)N[C@@H](CC(C)C)C(=O)N1CCC[C@H]1C(=O)N[C@@H](CCCCN)C(=O)N[C@@H](CO)C(N)=O)[C@@H](C)CC)[C@@H](C)CC)[C@@H](C)CC)[C@@H](C)CC", "note": "[IFNGR1-1, ε-Pal-FYIKKINPLKEKSIILPKS-NH2] (Palmitoyl-FYIKKINPLKEKSIILPKS-NH2)", "GI50": "> 25000"},
      {"smiles": "CCCCCCCCCCCCCCCC(=O)N1CCC[C@H]1C(=O)N[C@@H](CC(C)C)C(=O)N[C@@H](CCCCN)C(=O)N[C@@H](CCC(=O)O)C(=O)N[C@@H](CCCCN)C(=O)N[C@@H](CO)C(=O)N[C@H](C(=O)N[C@H](C(=O)N[C@@H](CC(C)C)C(=O)N1CCC[C@H]1C(=O)N[C@@H](CCCCN)C(=O)N[C@@H](CO)C(=O)N[C@@H](CC(C)C)C(=O)N[C@@H](CC(C)C)C(=O)N[C@@H](CO)C(=O)N[C@H](C(=O)N[C@H](C(=O)N[C@@H](CCCNC(=N)N)C(N)=O)C(C)C)C(C)C)[C@@H](C)CC)[C@@H](C)CC", "note": "[IFNGR1-3, ε-Pal-PLKEKSIILPKSLLSVVR-NH2] (Palmitoyl-PLKEKSIILPKSLLSVVR-NH2)", "GI50": 50},
      {"smiles": "CCCCCCCCCCCCCCCC(=O)N[C@H](C(=O)N[C@@H](CC(C)C)C(=O)N1CCC[C@H]1C(=O)N[C@@H](CCCCN)C(=O)N[C@@H](CO)C(=O)N[C@@H](CC(C)C)C(=O)N[C@@H](CC(C)C)C(=O)N[C@@H](CO)C(=O)N[C@H](C(=O)N[C@H](C(=O)N[C@@H](CCCNC(=N)N)C(=O)N[C@@H](CO)C(=O)N[C@@H](C)C(=O)N[C@H](C(N)=O)[C@@H](C)O)C(C)C)C(C)C)[C@@H](C)CC", "note": "[IFNGR1-4, ε-Pal-ILPKSLLSVVRSAT-NH2] (Palmitoyl-ILPKSLLSVVRSAT-NH2)", "GI50": 2500},
      {"smiles": "CCCCCCCCCCCCCCCC(=O)NCCCC[C@H](N)C(=O)NCC(=O)N[C@@H](CCCCN)C(=O)N[C@@H](CCC(=O)O)C(=O)N[C@@H](CO)C(=O)N[C@@H](CC(C)C)C(=O)N[C@H](C(=O)NCC(=O)N[C@@H](Cc1ccc(O)cc1)C(=O)N[C@@H](CCCNC(=N)N)C(=O)N1CCC[C@H]1C(=O)N[C@H](C(N)=O)[C@@H](C)O)[C@@H](C)CC", "note": "[IFNGR1-6, ε-Pal-KGKESLIGYRPT-NH2] (H-K(Palmitoyl)GKESLIGYRPT-NH2; N-terminus assumed)", "GI50": 70},
      {"smiles": "CCCCCCCCCCCCCCCC(=O)NCCCC[C@H](N)C(=O)NCC(=O)N[C@@H](Cc1ccc(O)cc1)C(=O)N[C@@H](CC(=O)O)C(=O)N[C@@H](CCCCN)C(=O)N1CCC[C@H]1C(=O)N[C@@H](Cc1c[nH]cn1)C(=O)N[C@H](C(=O)N[C@@H](CC(C)C)C(=O)N[C@H](C(=O)N[C@@H](CC(=O)O)C(=O)N[C@@H](CC(C)C)C(=O)N[C@@H](CC(C)C)C(=O)N[C@H](C(=O)N[C@@H](CC(=O)O)C(N)=O)C(C)C)C(C)C)C(C)C", "note": "[IFNGR1-7, ε-Pal-KGYDKPHVLVDLLVD-NH2] (H-K(Palmitoyl)GYDKPHVLVDLLVD-NH2; N-terminus assumed)", "GI50": 1000},
      {"smiles": "CCCCCCCCCCCCCCCC(=O)NCCCC[C@H](N)C(=O)N[C@@H](CO)C(=O)N[C@H](C(=O)N[C@@H](C)C(=O)N[C@@H](CC(C)C)C(=O)N[C@@H](CC(N)=O)C(=O)N[C@@H](CO)C(=O)N[C@@H](Cc1ccc(O)cc1)C(=O)N[C@@H](Cc1c[nH]cn1)C(=O)N[C@@H](CO)C(=O)N[C@@H](CCCNC(=N)N)C(=O)N[C@@H](CC(N)=O)C(N)=O)[C@@H](C)CC", "note": "[IFNGR1-8, ε-Pal-KSIALNSYHSRN-NH2] (H-K(Palmitoyl)SIALNSYHSRN-NH2; N-terminus assumed)", "GI50": "5000 ± 1000"},
      {"smiles": "CCCCCCCCCCCCCCCC(=O)NCCCC[C@H](N)C(=O)NCC(=O)NCC(=O)N[C@@H](CCCCN)C(=O)N[C@@H](CCC(=O)O)C(=O)N[C@@H](CO)C(=O)N[C@@H](CC(C)C)C(=O)N[C@H](C(=O)NCC(=O)N[C@@H](Cc1ccc(O)cc1)C(=O)N[C@@H](CCCNC(=N)N)C(N)=O)[C@@H](C)CC", "note": "[IFNGR1-10, ε-Pal-KGGKESLIGYR-NH2] (H-K(Palmitoyl)GGKESLIGYR-NH2; N-terminus assumed)", "GI50": 2500},
      {"smiles": "CCCCCCCCCCCCCCCC(=O)NCCCC[C@H](N)C(=O)NCC(=O)N[C@@H](CCCCN)C(=O)N[C@@H](CCC(=O)O)C(=O)N[C@@H](CO)C(=O)N[C@@H](CC(C)C)C(=O)N[C@H](C(=O)NCC(=O)N[C@@H](Cc1ccc(O)cc1)C(=O)N[C@@H](CCCNC(=N)N)C(N)=O)[C@@H](C)CC", "note": "[IFNGR1-11, ε-Pal-KGKESLIGYR-NH2] (H-K(Palmitoyl)GKESLIGYR-NH2; N-terminus assumed)", "GI50": 2000},
      {"smiles": "CCCCCCCCCCCCCCCC(=O)NCCCC[C@H](N)C(=O)NCC(=O)N[C@@H](Cc1ccc(O)cc1)C(=O)N[C@@H](CC(=O)O)C(=O)N[C@@H](CCCCN)C(=O)N1CCC[C@H]1C(=O)N[C@@H](Cc1c[nH]cn1)C(=O)N[C@H](C(=O)N[C@@H](CC(C)C)C(=O)N[C@H](C(N)=O)C(C)C)C(C)C", "note": "[IFNGR1-12, ε-Pal-KGYDKPHVLV-NH2] (H-K(Palmitoyl)GYDKPHVLV-NH2; N-terminus assumed)", "GI50": 600},
      {"smiles": "CCCCCCCCCCCCCCCC(=O)NCCCC[C@H](N)C(=O)N[C@@H](CC(C)C)C(=O)N[C@@H](CC(N)=O)C(=O)N[C@@H](CO)C(=O)N[C@@H](Cc1ccc(O)cc1)C(=O)N[C@@H](Cc1c[nH]cn1)C(=O)N[C@@H](CO)C(=O)N[C@@H](CCCNC(=N)N)C(=O)N[C@@H](CC(N)=O)C(=O)NCC(=O)N[C@@H](CO)C(N)=O", "note": "[IFNGR1-13, ε-Pal-KLNSYHSRNGS-NH2] (H-K(Palmitoyl)LNSYHSRNGS-NH2; N-terminus assumed)", "GI50": 4500},
      {"smiles": "CCCCCCCCCCCCCCCC(=O)NCCCC[C@H](N)C(=O)NCC(=O)N[C@@H](Cc1ccc(O)cc1)C(=O)N[C@@H](CC(=O)O)C(=O)N[C@@H](CCCCN)C(=O)N1CCC[C@H]1C(=O)N[C@@H](Cc1c[nH]cn1)C(=O)N[C@H](C(N)=O)C(C)C", "note": "[IFNGR1-15, ε-Pal-KGYDKPHV-NH2] (H-K(Palmitoyl)GYDKPHV-NH2; N-terminus assumed)", "GI50": 1600},
      {"smiles": "CCCCCCCCCCCCCCCC(=O)NCCCC[C@H](N)C(=O)N[C@@H](CCCCN)C(=O)N[C@@H](Cc1ccc(O)cc1)C(=O)N[C@@H](CCC(N)=O)C(=O)N[C@@H](CO)C(=O)N[C@@H](CCCNC(=N)N)C(=O)N[C@H](C(=O)N[C@@H](CCCCN)C(=O)N[C@@H](Cc1ccc(O)cc1)C(=O)N[C@@H](Cc1c[nH]c2ccccc12)C(=O)N[C@@H](Cc1ccccc1)C(=O)N[C@@H](CCC(N)=O)C(=O)N[C@@H](C)C(=O)N1CCC[C@H]1C(=O)N1CCC[C@H]1C(=O)N[C@@H](CC(N)=O)C(=O)N[C@H](C(=O)N1CCC[C@H]1C(=O)O)[C@@H](C)CC)C(C)C", "note": "[IFNGR2-1, ε-Pal-KKYQSRVKYWFQAPPNIP] (H-K(Palmitoyl)KYQSRVKYWFQAPPNIP-OH; N-terminus and C-terminus assumed)", "GI50": 5000}
    ]},
    {"test_system": "MDA-MB-231 breast cancer cells", "assay": "Inhibition of IFN-gamma-dependent growth of MDA-MB-231 cells, MTT assay, 48 hours", "format": "cell-based", "conditions": "Table 1; MTT assay after 48 hours exposure; concentration causing 50% inhibition in cell growth; read-out: GI50, MDA-MB-231", "units": {"GI50": "nM"}, "values": [
      {"smiles": "CCCCCCCCCCCCCCCC(=O)NCCCC[C@@H](NC(=O)[C@@H](CCCCN)NC(=O)[C@@H](CC(C)C)NC(=O)[C@H]1CCCN1C(=O)[C@@H](CO)NC(=O)[C@H](NC(=O)[C@@H](CC(C)C)NC(=O)[C@@H](CC(C)C)NC(=O)[C@@H](Cc1ccccc1)NC(=O)[C@@H](CCCCN)NC(=O)[C@@H](CCCCN)NC(=O)[C@H]1CCCN1C(=O)[C@@H](CO)NC(C)=O)C(C)C)C(N)=O", "note": "[IL10R1-9, Ac-SPKKFLLVSPLKK-ε-Pal] (Ac-[dS][dP][dK][dK][dF][dL][dL][dV][dS][dP][dL][dK][dK](Palmitoyl)-NH2; C-terminus assumed)", "GI50": 1000},
      {"smiles": "CCCCCCCCCCCCCCCC(=O)NCCCC[C@@H](NC(=O)[C@@H](CCCCN)NC(=O)[C@@H](CC(C)C)NC(=O)[C@H]1CCCN1C(=O)[C@@H](CO)NC(=O)[C@H](NC(=O)[C@@H](CC(C)C)NC(=O)[C@@H](CC(C)C)NC(=O)[C@@H](Cc1ccccc1)NC(=O)[C@@H](CCCCN)NC(=O)[C@@H](CCCCN)NC(C)=O)C(C)C)C(N)=O", "note": "[IL10R1-10, Ac-KKFLLVSPLKK-ε-Pal] (Ac-[dK][dK][dF][dL][dL][dV][dS][dP][dL][dK][dK](Palmitoyl)-NH2; C-terminus assumed)", "GI50": 1000},
      {"smiles": "CCCCCCCCCCCCCCCC(=O)NCCCC[C@@H](NC(=O)[C@@H](CCCCN)NC(=O)[C@@H](CC(C)C)NC(=O)[C@H]1CCCN1C(=O)[C@@H](CO)NC(=O)[C@H](NC(=O)[C@@H](CC(C)C)NC(=O)[C@@H](CC(C)C)NC(=O)[C@@H](Cc1ccccc1)NC(=O)[C@@H](CCCCN)NC(=O)[C@@H](CCCCN)NC(=O)[C@H]1CCCN1C(C)=O)C(C)C)C(N)=O", "note": "[IL10R1-11, Ac-PKKFLLVSPLKK-ε-Pal] (Ac-[dP][dK][dK][dF][dL][dL][dV][dS][dP][dL][dK][dK](Palmitoyl)-NH2; C-terminus assumed)", "GI50": 1000}
    ]},
    {"test_system": "MDA-MB-231 breast cancer cells", "assay": "Inhibition of IFN-gamma-dependent growth of MDA-MB-231 cells, MTT assay, 48 hours", "format": "cell-based", "conditions": "Table 3; MDA-MB-231 breast cancer cell line growth; regions B, C, D of IFNGR1; read-out: GI50", "units": {"GI50": "nM"}, "values": [
      {"smiles": "CCCCCCCCCCCCCCCC(=O)NCCCC[C@H](N)C(=O)N[C@@H](Cc1ccccc1)C(=O)NCC(=O)N[C@@H](Cc1ccc(O)cc1)C(=O)N[C@@H](CC(=O)O)C(=O)N[C@@H](CCCCN)C(=O)N1CCC[C@H]1C(=O)N[C@@H](Cc1c[nH]cn1)C(=O)N[C@H](C(N)=O)C(C)C", "note": "[IFNGR1-16, ε-Pal-KFGYDKPHV-NH2] (H-K(Palmitoyl)FGYDKPHV-NH2; N-terminus assumed)", "GI50": 2100}
    ]}
  ]
}
